Reference: PMC9562916, “Investigation of the Phenolic Component Bioavailability Using the In Vitro Digestion/Caco-2 Cell Model, as well as the Antioxidant Activity in Chinese Red Wine” (Foods, 2022)
Where two headings read alike, the source gives them in different places. Marks after values point to notes of the source that are not given here.

Tests used:
[1] = Caco-2 transepithelial transport assay of digested red wine; assay type: in vitro ADME, human; settings: human
Protocol: (§1) Caco-2 cells were inoculated following the method of Hubatsch et al. […] Briefly, a 5% v/v of CO2 incubator at 37 °C was used to house the cells. […] Caco-2 cells were sub-cultured when they reached 80-90% of the adherent growth by treating them with a 0.05% v/v of trypsin-EDTA solution. The culture between passages 35 and 40 was used for the following experiment. Transport experiments were performed according to the method of Wu et al. with slight modifications. First, 1.0 × 10^5 Caco-2 cells were inoculated onto 12 mm transparent cell culture plates (Transwell). Media were carefully injected into the apical (0.5 mL) and basolateral (1.5 mL) sides of the Transwell plates. The cell culture medium had to be replaced every other day until the cells formed a monolayer. The integrity and transport ability of the Caco-2 cell monolayer were evaluated by measuring the trans-epithelial electrical resistance (TEER) with a MilliCell voltammeter (Millicell ERS-2, Merck Millipore, Billerica, MA, USA). […] When the cell activity exceeded 0.9, a transport experiment was conducted. The apical side was injected with a digested red wine sample (0.5 mL) and was thoroughly mixed with […] Balanced Salt Solution (HBSS) buffer solution. […] The cells were then cultured in a 37 °C, 5% CO2 incubator. Then, 0.25 mL samples were separately taken from the basolateral side of the monolayer. An equal volume of HBSS buffer was then added every half hour from the beginning of the culture until the end of the culture at 6 h. The collected samples were subsequently filtered and placed in the sample bottle for further HPLC analysis. This experiment was repeated several times to collect enough samples for the next antioxidant test. […] The Agilent 1100 series HPLC instrument was used; it was equipped with a degasser, quaternary pump solvent delivery, a DAD system, and a single quadrupole mass detector coupled with an electrospray ionization LC-MS interface. […] The column temperature was kept at 30 °C, the injection volume was 10 μL, and the flow rate was 0.3 mL/min. The eluents were water and formic acid in a 99:1 (v/v) (A) ratio and 100% acetonitrile (B). The gradient elution procedure was as follows: (1) 3% B solvent at 0 min, (2) 3 to 16% B solvent at 10 min, (3) 16 to 20% B solvent at 30 min, and (4) 20% B solvent maintained until the procedure was completed. The MS configuration was as follows: ESI, negative ion mode, nebulizer pressure of 30 psi, a dry gas flow rate of 10 mL/min, dry gas temperature of 350 °C, and a scan rate of 100~1200 m/z. PCs were determined according to their retention times, UV/VIS spectra, and high-resolution MS spectra, in addition to a comparison with the standards. […] If a standard was unavailable, a structurally related compound was used. Putative annotations were made using spectral features and literature information on the chromatographic properties and mass spectra records from the metabolome database. A standard curve was drawn using methanol solutions with different concentrations as the standards. […] PCs All of the samples were determined in triplicate.

Caco-2 cell monolayer = test: as above; assay type: in vitro ADME, human
Protocol: as §1

[2] = PC content of red wine before and after in vitro simulated gastrointestinal digestion (HPLC); assay type: in vitro ADME
Protocol: The digestion procedure was carried out by adapting the method of Brodkorb et al. and Gómez et al.. […] One milliliter (50 units/mL) of porcine amylase was prepared in a 15 mM Na₃PO₄ buffer solution (pH adjusted to 6.8) containing 1.5 mM CaCl2, and it was added to the red wine solution. After 5 min, 4.5 mL of 0.12 M HCl was added to the mixture to adjust the pH to 2.4. One milliliter of porcine pepsin (0.02 mg/L) was dissolved in a 20 mM HCl solution. The mixture was then maintained at 37 °C for 120 min. The digestion mixture was then centrifuged at 8000× g for 15 min to obtain samples from the gastric digestion phase. […] The mixture was incubated at pH 6.5 at 37 °C for 3 h before being centrifuged. The extracts of the intestinal phase were the supernatants. The same operation was done three times, and each sample was stored in a refrigerator (−20 °C) immediately for further analysis.
The Pati method was adopted, with slight modifications, to measure the content of the PCs. The Agilent 1100 series HPLC instrument was used; it was equipped with a degasser, quaternary pump solvent delivery, a DAD system, and a single quadrupole mass detector coupled with an electrospray ionization LC–MS interface. Briefly, th samples were injected into a Zorbax SB C18 reversed-phase column (5 µm,150 × 2.1 mm, Agilent Technologies, Santa Clara, CA, USA) using an autosampler after filtering through 0.45 µm cellulose acetate syringe filters. The column temperature was kept at 30 °C, the injection volume was 10 µL, and the flow rate was 0.3 mL/min. The eluents were water and formic acid in a 99:1 (v/v) (A) ratio and 100% acetonitrile (B). […] The MS configuration was as follows: ESI, negative ion mode, nebulizer pressure of 30 psi, a dry gas flow rate of 10 mL/min, dry gas temperature of 350 °C, and a scan rate of 100~1200 m/z. PCs were determined according to their retention times, UV/VIS spectra, and high-resolution MS spectra, in addition to a comparison with the standards. […] Putative annotations were made using spectral features and literature information on the chromatographic properties and mass spectra records from the metabolome database. A standard curve was drawn using methanol solutions with different concentrations as the standards. The limits of detection and quantitation were calculated according to the signal-to-noise ratio (limit of detection: signal-to-noise ratio ≥ 3; limit of quantitation: signal-to-noise ratio ≥ 10). […] PCs All of the samples were determined in triplicate.

[3] = Caco-2, apical to basolateral, digested Cabernet red wine, read-out: Apparent Permeability Coefficients, Cabernet
[4] = Caco-2, apical to basolateral, digested Helanshan red wine, read-out: Apparent Permeability Coefficients, Helanshan
[5] = Caco-2, apical to basolateral, digested Tianzhu red wine, read-out: Apparent Permeability Coefficients, Tianzhu
[6] = Cabernet red wine, digested sample, basolateral side of Caco-2 monolayer
[7] = Helanshan red wine, digested sample, basolateral side of Caco-2 monolayer
[8] = Tianzhu red wine, digested sample, basolateral side of Caco-2 monolayer
[9] = Cabernet red wine, after simulated gastrointestinal digestion
[10] = Tianzhu red wine, after simulated gastrointestinal digestion
[11] = Helanshan red wine, after simulated gastrointestinal digestion
[12] = apical to basolateral, digested Cabernet red wine
[13] = apical to basolateral, digested Helanshan red wine
[14] = apical to basolateral, digested Tianzhu red wine

SMILES | Papp at 6 h [1, 3] | Papp at 6 h [1, 4] | Papp at 6 h [1, 5] | PC Contents, Cabernet, Transmembrane (Caco-2 cell monolayer; [6]) | PC Contents, Helanshan, Transmembrane (Caco-2 cell monolayer; [7]) | PC Contents, Tianzhu, Transmembrane (Caco-2 cell monolayer; [8]) | PC Contents, Cabernet, After Digestion [2, 9] | PC Contents, Tianzhu, After Digestion [2, 10] | PC Contents, Helanshan, After Digestion [2, 11] | Apparent Permeability Coefficients, Cabernet (Caco-2 cell monolayer; Caco-2) | Apparent Permeability Coefficients, Helanshan (Caco-2 cell monolayer; Caco-2) | Apparent Permeability Coefficients, Tianzhu (Caco-2 cell monolayer; Caco-2) | PC Contents, Cabernet, Transmembrane (Caco-2 cell monolayer; Caco-2) | PC Contents, Helanshan, Transmembrane (Caco-2 cell monolayer; Caco-2) | PC Contents, Tianzhu, Transmembrane (Caco-2 cell monolayer; Caco-2) | PC Contents, Cabernet, After Digestion [2] | PC Contents, Helanshan, After Digestion [2] | PC Contents, Tianzhu, After Digestion [2] | further results
O=C(/C=C/c1ccc(O)c(O)c1)O[C@@H](C(=O)O)[C@@H](O)C(=O)O [Caftaric acid] | 89.3 ± 10.2 nm/s | 87.7 ± 12.8 nm/s | 84.5 ± 13.1 nm/s | 0.43 ± 0.01 ^a mg/L | 0.49 ± 0.02 ^a mg/L | 1.07 ± 0.03 ^a mg/L | 3.01 ± 0.17 ^b mg/L | 5.35 ± 0.23 ^b mg/L |  |  |  |  |  |  |  |  |  |  | 
Oc1cc(O)c2c(c1)O[C@H](c1ccc(O)c(O)c1)[C@H](O)C2 [Epicatechin] | 114 ± 17.7 nm/s | 115 ± 15.3 nm/s | 114 ± 14.6 nm/s |  |  |  |  |  |  |  |  |  |  |  |  |  |  |  | 
CCOC(=O)c1cc(O)c(O)c(O)c1 [Ethyl gallate] | 174 ± 27.3 nm/s | 179 ± 28.8 nm/s | 183 ± 30.2 nm/s | 10.70 ± 0.33 ^a mg/L | 8.64 ± 0.36 ^a mg/L | 8.13 ± 0.28 ^a mg/L | 38.42 ± 1.88 ^b mg/L | 40.83 ± 1.51 ^b mg/L | 30.18 ± 0.94 ^b mg/L |  |  |  |  |  |  |  |  |  | 
O=C(O)c1cc(O)c(O)c(O)c1 [Gallic acid] |  |  |  | 4.61 ± 0.23 ^a mg/L | 2.53 ± 0.14 ^a mg/L | 1.38 ± 0.05 ^a mg/L | 9.08 ± 0.44 ^b mg/L | 6.91 ± 0.26 ^b mg/L |  |  |  |  |  |  |  |  |  |  | bioavailability ([1]; Caco-2): 24%; Papp at 6 h ([1]; Caco-2, Apparent Permeability Coefficients, Cabernet): 317 ± 38.2 nm/s; Papp at 6 h ([1]; Caco-2, Apparent Permeability Coefficients, Helanshan): 309 ± 39.9 nm/s; Papp at 6 h ([1]; Caco-2, Apparent Permeability Coefficients, Tianzhu): 328 ± 41.3 nm/s
O=c1c(O[C@@H]2O[C@H](CO)[C@@H](O)[C@H](O)[C@H]2O)c(-c2ccc(O)c(O)c2)oc2cc(O)cc(O)c12 [Isoquercetin] | 38.4 ± 2.9 nm/s | 37.3 ± 2.7 nm/s | 38.7 ± 2.3 nm/s | 0.83 ± 0.04 ^a mg/L | 0.72 ± 0.04 ^a mg/L | 3.81 ± 0.18 ^a mg/L | 13.46 ± 0.59 ^b mg/L | 19.13 ± 0.69 ^b mg/L | 12.01 ± 0.37 ^b mg/L |  |  |  |  |  |  |  |  |  | Increase in content after digestion ([2]; Tianzhu red wine, after digestion vs undigested): 9.8%
COc1cc(-c2[o+]c3cc(O)cc(O)c3cc2O[C@@H]2O[C@H](CO)[C@@H](O)[C@H](O)[C@H]2O)cc(O)c1O [Petunidin-3-glc] |  |  |  |  |  |  |  |  |  | 16.89 ± 2.96 ^a ×10^−6 cm/s | 17.56 ± 3.32 ^a ×10^−6 cm/s | 17.13 ± 3.01 ^a ×10^−6 cm/s | 1.56 ± 0.07 ^a mg/L | 1.40 ± 0.05 ^a mg/L | 1.06 ± 0.04 ^a mg/L | 5.79 ± 0.27 ^b mg/L | 4.98 ± 0.19 ^b mg/L | 5.33 ± 0.21 ^b mg/L | 
O=c1c(OC2O[C@H](CO)[C@@H](O)[C@H](O)[C@H]2O)c(-c2cc(O)c(O)c(O)c2)oc2cc(O)cc(O)c12 (stereo partly drawn) [Myricetin-3-glc] |  |  |  | 0.81 ± 0.04 ^a mg/L | 0.64 ± 0.02 ^a mg/L | 8.61 ± 0.43 ^a mg/L | 36.91 ± 1.10 ^b mg/L | 43.22 ± 1.34 ^b mg/L | 28.45 ± 1.51 ^b mg/L |  |  |  |  |  |  |  |  |  | Apparent Permeability Coefficients, Cabernet (Caco-2 cell monolayer; [12]): 1.38 ± 0.17 ^a ×10^−6 cm/s; Apparent Permeability Coefficients, Helanshan (Caco-2 cell monolayer; [13]): 1.41 ± 0.21 ^a ×10^−6 cm/s; Apparent Permeability Coefficients, Tianzhu (Caco-2 cell monolayer; [14]): 1.35 ± 0.19 ^a ×10^−6 cm/s
CC(=O)OCC1OC(Oc2cc3c(O)cc(O)cc3[o+]c2-c2cc(O)c(O)c(O)c2)C(O)C(O)C1O (stereo not drawn) [Delphinidin-3-acglc] |  |  |  | 0.04 ± 0.002 ^a mg/L | 0.02 ± 0.001 ^a mg/L | 0.04 ± 0.002 ^a mg/L | 0.29 ± 0.014 ^b mg/L | 0.22 ± 0.008 ^b mg/L | 0.14 ± 0.007 ^b mg/L |  |  |  |  |  |  |  |  |  | Apparent Permeability Coefficients, Cabernet (Caco-2 cell monolayer; [12]): 8.57 ± 1.26 ^a ×10^−6 cm/s; Apparent Permeability Coefficients, Helanshan (Caco-2 cell monolayer; [13]): 8.64 ± 1.38 ^a ×10^−6 cm/s; Apparent Permeability Coefficients, Tianzhu (Caco-2 cell monolayer; [14]): 8.78 ± 1.44 ^a ×10^−6 cm/s
COc1cc(-c2oc3cc(O)cc(O)c3c(=O)c2O[C@@H]2O[C@H](CO)[C@@H](O)[C@H](O)[C@H]2O)cc(O)c1O [Laricitrin-3-glc] |  |  |  |  |  |  |  |  |  | 1.76 ± 0.17 ^a ×10^−6 cm/s | 1.83 ± 0.16 ^a ×10^−6 cm/s | 1.79 ± 0.13 ^a ×10^−6 cm/s | 0.84 ± 0.04 ^a mg/L | 0.55 ± 0.03 ^a mg/L | 5.70 ± 0.29 ^a mg/L | 29.78 ± 1.28 ^b mg/L | 18.76 ± 0.81 ^b mg/L | 28.63 ± 0.86 ^b mg/L | 
COc1cc(-c2[o+]c3cc(O)cc(O)c3cc2OC2OC(COC(C)=O)C(O)C(O)C2O)cc(O)c1O (stereo not drawn) [Petunidin-3-acglc] |  |  |  |  |  |  |  |  |  | 11.53 ± 2.01 ^a ×10^−6 cm/s | 11.78 ± 2.11 ^a ×10^−6 cm/s | 11.46 ± 2.05 ^a ×10^−6 cm/s | 0.19 ± 0.008 ^a mg/L | 0.18 ± 0.005 ^a mg/L | 0.23 ± 0.008 ^a mg/L | 1.05 ± 0.05 ^b mg/L | 0.98 ± 0.05 ^b mg/L | 1.17 ± 0.04 ^b mg/L | 
